Values quoted from earlier work as cited in patent US8247391B2, “Gel compositions” (De Montfort University, priority 2001, dated 2012).
Values after ≈ are worked out from the molar mass of the structure shown.

conditions: room temperature, pH 7.3 buffer (with antioxidants)

Row | water solubility [µM] | SMILES
1 | 0.11 (≈ 0.0313 µg/mL) | CC1=C(/C=C/C(C)=C/C=C/C(C)=C/C=O)C(C)(C)CCC1 [retinal, retinaldehyde]
2 | 0.06 (≈ 0.0172 µg/mL) | CC1=C(/C=C/C(C)=C/C=C/C(C)=C/CO)C(C)(C)CCC1 [retinol, Retinol]

Row | SMILES | water solubility [µM]
3 | CC1=C(/C=C/C(C)=C/C=C/C(C)=C/C(=O)O)C(C)(C)CCC1 [retinoic acid] | 0.21 (≈ 0.0631 µg/mL)
